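Test compounds were applied to cells in 96-well plates for 48 hours at 5 doses. At the GI50, growth is halved.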 Active and inactive are the calls of the source. No stated cut-off is given here; in the data, active = GI50 up to about 1.1 µM and inactive = higher.
Key:
Experiment in all cases: DTP human tumour cell line panel, 48 h
786-0 = tested on: 786-0
A549 = tested on: A549
COLO 205 = tested on: COLO 205
HCT-116 = tested on: HCT-116
K562 = tested on: K562
MOLT-4 = tested on: MOLT-4
NCI-H522 = tested on: NCI-H522
NCI/ADR-RES = tested on: NCI/ADR-RES
RPMI-8226 = tested on: RPMI-8226
RXF 393 = tested on: RXF 393
SF-268 = tested on: SF-268
SK-MEL-2 = tested on: SK-MEL-2
SK-OV-3 = tested on: SK-OV-3
SW-620 = tested on: SW-620
TK-10 = tested on: TK-10
U-251 = tested on: U-251
UACC-62 = tested on: UACC-62
Hs-578T = tested on: Hs-578T
M14 = tested on: M14
LOX IMVI = tested on: LOX IMVI

| SMILES | GI50 (786-0) | GI50 (A549) | GI50 (COLO 205) | GI50 (HCT-116) | GI50 (K562) | GI50 (MOLT-4) | GI50 (NCI-H522) | GI50 (NCI/ADR-RES) | GI50 (RPMI-8226) | GI50 (RXF 393) | GI50 (SF-268) | GI50 (SK-MEL-2) | GI50 (SK-OV-3) | GI50 (SW-620) | GI50 (TK-10) | GI50 (U-251) | GI50 (UACC-62) | GI50 (Hs-578T) | GI50 (M14) | GI50 (LOX IMVI) |
| --- | --- | --- | --- | --- | --- | --- | --- | --- | --- | --- | --- | --- | --- | --- | --- | --- | --- | --- | --- | --- |
| Cc1cccc2nc3n(c12)C(=O)c1ccccc1-3 | > 100 µM (inactive) | > 100 µM (inactive) | > 100 µM (inactive) | > 100 µM (inactive) | > 100 µM (inactive) | > 100 µM (inactive) | > 100 µM (inactive) | > 100 µM (inactive) | > 100 µM (inactive) | > 100 µM (inactive) | > 100 µM (inactive) | > 100 µM (inactive) | > 100 µM (inactive) | > 100 µM (inactive) | > 100 µM (inactive) | > 100 µM (inactive) | > 100 µM (inactive) |  |  |  |
| CC(C)c1ccc2nc3ccc(C(=O)NCCN4CCN(c5ccccc5)CC4)cn3c(=O)c2c1 | 3.21 µM (inactive) | > 100 µM (inactive) | 3.33 µM (inactive) | 5.66 µM (inactive) | 2.45 µM (inactive) | 1.87 µM (inactive) | 5.58 µM (inactive) | 3.57 µM (inactive) |  |  | > 100 µM (inactive) |  | > 100 µM (inactive) | 8.49 µM (inactive) | 3.56 µM (inactive) | > 100 µM (inactive) | 3.87 µM (inactive) | 4.93 µM (inactive) | 2.87 µM (inactive) |  |
| Nn1c(=S)[nH]nc(/C=C/c2c(O)ccc3ccccc23)c1=O | 5.46 µM (inactive) | 6.78 µM (inactive) | 7.18 µM (inactive) | 3.32 µM (inactive) | 5.27 µM (inactive) | 4.29 µM (inactive) | 3.32 µM (inactive) | 3.26 µM (inactive) | 28.6 µM (inactive) |  | 2.96 µM (inactive) | 13.3 µM (inactive) | 11 µM (inactive) | 4.74 µM (inactive) |  | 8.22 µM (inactive) | 4.88 µM (inactive) |  | 5.71 µM (inactive) | 2.48 µM (inactive) |
| O=C(Cc1ccccc1)NS(=O)(=O)c1ccccc1 | > 100 µM (inactive) | > 100 µM (inactive) | > 100 µM (inactive) | > 100 µM (inactive) | > 100 µM (inactive) | > 100 µM (inactive) | > 100 µM (inactive) |  | > 100 µM (inactive) | > 100 µM (inactive) | > 100 µM (inactive) | > 100 µM (inactive) | > 100 µM (inactive) | > 100 µM (inactive) | > 100 µM (inactive) | > 100 µM (inactive) | > 100 µM (inactive) |  | > 100 µM (inactive) | > 100 µM (inactive) |
| COc1ccc2oc(=O)c3c(c2c1C)OC(C)(C)C=C3 | > 100 µM (inactive) | > 100 µM (inactive) | > 100 µM (inactive) | > 100 µM (inactive) | > 100 µM (inactive) | 44.1 µM (inactive) | > 100 µM (inactive) | > 100 µM (inactive) | > 100 µM (inactive) |  | 23.2 µM (inactive) | > 100 µM (inactive) | > 100 µM (inactive) | > 100 µM (inactive) | > 100 µM (inactive) | > 100 µM (inactive) | > 100 µM (inactive) | > 100 µM (inactive) | > 100 µM (inactive) | > 100 µM (inactive) |
| COC1=C(C(=O)OC(C)(C)C)[C@]2(C)C(C(=O)OC(C)(C)C)C(OC)=C(C(=O)OC(C)(C)C)[C@]2(C)C1C(=O)OC(C)(C)C (stereo not given in full) | > 100 µM (inactive) | > 100 µM (inactive) | 60.4 µM (inactive) | 96.4 µM (inactive) | 37.5 µM (inactive) | 33.9 µM (inactive) | 43.8 µM (inactive) |  | 31.3 µM (inactive) | > 100 µM (inactive) | > 100 µM (inactive) | > 100 µM (inactive) | > 100 µM (inactive) | > 100 µM (inactive) | > 100 µM (inactive) | > 100 µM (inactive) | > 100 µM (inactive) |  | 46.9 µM (inactive) | > 100 µM (inactive) |
| CC1(C)CCC(C)(C)C1C(=O)NC(O)C(=O)O (stereo not given) | > 100 µM (inactive) | > 100 µM (inactive) | > 100 µM (inactive) | > 100 µM (inactive) | > 100 µM (inactive) | > 100 µM (inactive) |  | > 100 µM (inactive) | > 100 µM (inactive) |  | > 100 µM (inactive) | > 100 µM (inactive) | > 100 µM (inactive) | > 100 µM (inactive) | > 100 µM (inactive) | > 100 µM (inactive) | > 100 µM (inactive) | > 100 µM (inactive) | > 100 µM (inactive) | > 100 µM (inactive) |
| CC1(C)OCC2OC3([C@@H]4OC(C)(C)O[C@H]4CO)OC(C)(C)OC3C2O1 (stereo not given in full) | > 100 µM (inactive) | > 100 µM (inactive) | > 100 µM (inactive) | > 100 µM (inactive) | > 100 µM (inactive) | > 100 µM (inactive) |  | > 100 µM (inactive) | > 100 µM (inactive) | > 100 µM (inactive) |  | > 100 µM (inactive) |  | > 100 µM (inactive) |  | > 100 µM (inactive) | > 100 µM (inactive) |  | > 100 µM (inactive) | > 100 µM (inactive) |
| COC(=O)[C@@]1(Cc2ccc(O)cc2)C[C@@H]2Cc3ccccc3N2N1 | > 100 µM (inactive) | 81.7 µM (inactive) | 79.1 µM (inactive) | 65.3 µM (inactive) |  | 4.8 µM (inactive) | 58.2 µM (inactive) | 31.8 µM (inactive) | 30.5 µM (inactive) |  | > 100 µM (inactive) | 25.4 µM (inactive) | > 100 µM (inactive) | > 100 µM (inactive) | > 100 µM (inactive) | 57.1 µM (inactive) | 70.8 µM (inactive) | 68.4 µM (inactive) | 38.8 µM (inactive) | > 100 µM (inactive) |
| O=C1C=CN(C2OC(CO)C(O)C2O)C(=O)C1 (stereo not given) | 13.3 µM (inactive) | 17.8 µM (inactive) | 27.1 µM (inactive) | 1.51 µM (inactive) | 1.58 µM (inactive) | 8.34 µM (inactive) |  |  | 5.47 µM (inactive) | 372 µM (inactive) |  |  | 1320 µM (inactive) | 32.5 µM (inactive) | 2210 µM (inactive) |  | 50.4 µM (inactive) | 126 µM (inactive) | 231 µM (inactive) | 12 µM (inactive) |
| COc1cc2c(c(OC)c1)[C@H](C)N(Cc1ccccc1)C(C)C2 (stereo not given in full) | 36.1 µM (inactive) | 43.5 µM (inactive) | 29.5 µM (inactive) | 14.7 µM (inactive) | 21.9 µM (inactive) | 22.7 µM (inactive) | > 100 µM (inactive) |  | 21.3 µM (inactive) |  | 80.2 µM (inactive) |  | > 100 µM (inactive) | 28.9 µM (inactive) | 37.2 µM (inactive) |  | 52.5 µM (inactive) | 25.5 µM (inactive) | 17.7 µM (inactive) | 30.1 µM (inactive) |
| CCC1(O)C(=O)OCc2c1cc1n(c2=O)Cc2cc3ccc(CO)cc3nc2-1 (stereo not given) | 1.99 µM (inactive) | 6.04 µM (inactive) | 14.2 µM (inactive) | 4.85 µM (inactive) | 4.3 µM (inactive) | 0.322 µM (active) | 1.64 µM (inactive) |  | 7.08 µM (inactive) | 7.26 µM (inactive) | 0.995 µM (active) | 18 µM (inactive) | 2.26 µM (inactive) | 7.52 µM (inactive) | > 95.3 µM (inactive) | 0.705 µM (active) | 0.757 µM (active) |  | 3.59 µM (inactive) | 1.83 µM (inactive) |
